Experimental data taken from PubChem BioAssay (NCI).
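GI50 = concentration required for 50% inhibition of growth. TGI marks complete inhibition of growth.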

Legend:
Assay in all cases: growth of human tumour cells (NCI), 384-well format; in the data active means GI50 below about 0.43 µM; inactive means the rest
[1] = test system: 786-0 renal
[2] = test system: A498 renal
[3] = test system: A549 NSCLC
[4] = test system: ACHN renal
[5] = test system: BT-549 breast
[6] = test system: CAKI-1 renal
[7] = test system: CCRF-CEM leukemia
[8] = test system: COLO 205 colon
[9] = test system: DU-145 prostate
[10] = test system: EKVX NSCLC
[11] = test system: HCC-2998 colon
[12] = test system: HCT-15 colon
[13] = test system: HL-60(TB) leukemia
[14] = test system: HOP-62 NSCLC
[15] = test system: HOP-92 NSCLC
[16] = test system: HS 578T breast
[17] = test system: HT29 colon
[18] = test system: IGROV1 ovarian
[19] = test system: K-562 leukemia
[20] = test system: KM12 colon
[21] = test system: LOX IMVI melanoma
[22] = test system: M14 melanoma
[23] = test system: MALME-3M melanoma
[24] = test system: MCF7 breast
[25] = test system: MDA-MB-231 breast
[26] = test system: MDA-MB-435 melanoma
[27] = test system: MDA-MB-468 breast
[28] = test system: MOLT-4 leukemia
[29] = test system: NCI-H226 lung
[30] = test system: NCI-H23 lung
[31] = test system: NCI-H322M lung
[32] = test system: NCI-H460 NSCLC
[33] = test system: NCI-H522 lung
[34] = test system: NCI/ADR-RES ovarian
[35] = test system: OVCAR-3 ovarian
[36] = test system: OVCAR-4 ovarian
[37] = test system: OVCAR-5 ovarian
[38] = test system: OVCAR-8 ovarian
[39] = test system: PC-3 prostate
[40] = test system: RPMI-8226 leukemia
[41] = test system: RXF 393 renal
[42] = test system: SF-268 CNS
[43] = test system: SF-295 CNS
[44] = test system: SF-539 CNS
[45] = test system: SK-MEL-28 melanoma
[46] = test system: SK-MEL-5 melanoma
[47] = test system: SK-OV-3 ovarian
[48] = test system: SN12C renal
[49] = test system: SNB-19 CNS
[50] = test system: SNB-75 CNS
[51] = test system: SR leukemia
[52] = test system: SW-620 colon
[53] = test system: T-47D breast
[54] = test system: TK-10 renal
[55] = test system: U251 glioblastoma
[56] = test system: UACC-257 melanoma
[57] = test system: UACC-62 melanoma
[58] = test system: UO-31 renal

O=C(O)CCC1CCC(c2cc(F)ccc2F)(S(=O)(=O)c2ccc(Cl)cc2)CC1 (stereo not drawn)
> 100000 nM: TGI [1] | TGI [2] | TGI [3] | TGI [4] | TGI [5] | TGI [6] | TGI [7] | TGI [8] | TGI [9] | TGI [10] | TGI [11] | TGI [12] | TGI [13] | TGI [14] | TGI [15] | TGI [16] | TGI [17] | TGI [18] | TGI [19] | TGI [20] | TGI [21] | TGI [22] | TGI [23] | TGI [24] | TGI [25] | TGI [26] | TGI [28] | TGI [29] | TGI [30] | TGI [31] | TGI [32] | TGI [33] | TGI [34] | TGI [35] | TGI [36] | TGI [37] | TGI [38] | TGI [39] | TGI [40] | TGI [41] | TGI [42] | TGI [43] | TGI [44] | TGI [45] | TGI [46] | TGI [47] | TGI [48] | TGI [49] | TGI [50] | TGI [51] | TGI [52] | TGI [53] | TGI [54] | TGI [55] | TGI [56] | TGI [57] | TGI [58]
inactive: GI50 [1] > 100000 nM | GI50 [2] > 100000 nM | GI50 [3] > 100000 nM | GI50 [4] > 100000 nM | GI50 [5] > 100000 nM | GI50 [6] > 100000 nM | GI50 [7] 75800 nM | GI50 [8] > 100000 nM | GI50 [9] > 100000 nM | GI50 [10] > 100000 nM | GI50 [11] > 100000 nM | GI50 [12] > 100000 nM | GI50 [13] > 100000 nM | GI50 [14] > 100000 nM | GI50 [15] > 100000 nM | GI50 [16] > 100000 nM | GI50 [17] > 100000 nM | GI50 [18] > 100000 nM | GI50 [19] > 100000 nM | GI50 [20] > 100000 nM | GI50 [21] > 100000 nM | GI50 [22] > 100000 nM | GI50 [23] 62000 nM | GI50 [24] > 100000 nM | GI50 [25] > 100000 nM | GI50 [26] 71900 nM | GI50 [27] 8100 nM | GI50 [28] 65000 nM | GI50 [29] > 100000 nM | GI50 [30] > 100000 nM | GI50 [31] > 100000 nM | GI50 [32] > 100000 nM | GI50 [33] > 100000 nM | GI50 [34] > 100000 nM | GI50 [35] > 100000 nM | GI50 [36] 78800 nM | GI50 [37] > 100000 nM | GI50 [38] > 100000 nM | GI50 [39] > 100000 nM | GI50 [40] > 100000 nM | GI50 [41] > 100000 nM | GI50 [42] > 100000 nM | GI50 [43] > 100000 nM | GI50 [44] > 100000 nM | GI50 [45] > 100000 nM | GI50 [46] > 100000 nM | GI50 [47] > 100000 nM | GI50 [48] > 100000 nM | GI50 [49] > 100000 nM | GI50 [50] > 100000 nM | GI50 [51] 24800 nM | GI50 [52] > 100000 nM | GI50 [53] 99600 nM | GI50 [54] > 100000 nM | GI50 [55] > 100000 nM | GI50 [56] > 100000 nM | GI50 [57] > 100000 nM | GI50 [58] > 100000 nM
80400 nM: TGI [27]

CN1CCN(Cc2ccc(Nc3ncc(Cl)c(Nc4ccccc4S(=O)(=O)N(C)C)n3)cc2)CC1
920 nM: TGI [55]
253 nM: TGI [56]
170 nM: TGI [33]
151 nM: TGI [27]
233 nM: TGI [19]
243 nM: TGI [35]
481 nM: TGI [34]
123 nM: TGI [57]
441 nM: TGI [26]
15.3 nM: TGI [7]
active: GI50 [1] 109 nM | GI50 [2] 136 nM | GI50 [3] < 10 nM | GI50 [5] 117 nM | GI50 [7] < 10 nM | GI50 [8] 16.9 nM | GI50 [9] 45.2 nM | GI50 [10] 192 nM | GI50 [11] 32 nM | GI50 [12] 72.5 nM | GI50 [13] < 10 nM | GI50 [14] 20.8 nM | GI50 [16] 181 nM | GI50 [18] 62.6 nM | GI50 [19] 16.5 nM | GI50 [20] 16.5 nM | GI50 [21] 20.5 nM | GI50 [22] 98 nM | GI50 [23] 116 nM | GI50 [24] < 10 nM | GI50 [25] 167 nM | GI50 [26] 149 nM | GI50 [27] 41.9 nM | GI50 [28] < 10 nM | GI50 [30] 98.2 nM | GI50 [31] 129 nM | GI50 [32] < 10 nM | GI50 [33] < 10 nM | GI50 [34] 191 nM | GI50 [35] 52.7 nM | GI50 [36] 299 nM | GI50 [37] 128 nM | GI50 [38] 134 nM | GI50 [40] < 10 nM | GI50 [41] 162 nM | GI50 [42] 18.3 nM | GI50 [44] 18.1 nM | GI50 [45] 133 nM | GI50 [46] 29.2 nM | GI50 [47] 280 nM | GI50 [48] 140 nM | GI50 [49] 224 nM | GI50 [50] 200 nM | GI50 [52] 44.8 nM | GI50 [54] 393 nM | GI50 [55] 146 nM | GI50 [56] 111 nM | GI50 [57] < 10 nM | GI50 [58] 144 nM
358 nM: TGI [48]
251 nM: TGI [11]
307 nM: TGI [41]
274 nM: TGI [45]
371 nM: TGI [12]
> 100000 nM: TGI [47] | TGI [49]
235 nM: TGI [22]
420 nM: TGI [38]
671 nM: TGI [2]
201 nM: TGI [21]
73.6 nM: TGI [14]
363 nM: TGI [50]
351 nM: TGI [31]
252 nM: TGI [23]
2880 nM: TGI [54]
234 nM: TGI [30]
15500 nM: TGI [9]
21200 nM: TGI [18]
605 nM: TGI [37]
1140 nM: TGI [1]
478 nM: TGI [10]
306 nM: TGI [52]
356 nM: TGI [16]
17.3 nM: TGI [13]
1310 nM: TGI [24]
78.8 nM: TGI [42]
448 nM: TGI [58]
139 nM: TGI [44]
32.6 nM: TGI [40]
298 nM: TGI [20]
128 nM: TGI [8]
750 nM: TGI [3]
257 nM: TGI [5]
186 nM: TGI [46]
1130 nM: TGI [25]
10.9 nM: TGI [32]
888 nM: TGI [36]
